Data reported in PMC6172212, “Structural Analysis of Inhibitor Binding to CAMKK1 Identifies Features Necessary for Design of Specific Inhibitors” (Scientific Reports, 2018).
Read-outs that look alike come from different tables or passages of the source.

Tests used:
[1] = molecular target: T1, CAMKK1 kinase domain (CAMKK1-KD) (Homo sapiens, UniProt Q8N5S9); experiment: Isothermal titration calorimetry (ITC) with CAMKK1-KD; assay type: binding; details: for ΔH: ITC at 20 °C, binding enthalpy
T1 construct: The kinase domain (Gln124 to Lys411) was amplified using the primers; 6xHis (TEV-cleavable) (N, cleaved yes); made in house; host or cells: Escherichia coli BL21(DE3)-R3 co-expressing λ-phosphatase
Experimental: Measurements were made using a MicroCal AutoiITC200 (Malvern, United Kingdom), at 20 °C with 1000 rpm stirring. For all measurements CAMKK1-KD protein was dialysed overnight against gel filtration buffer, and the dialysis buffer was used to dilute the inhibitors. CAMKK1-KD protein was titrated into a solution containing the inhibitor. […] ITC data was analysed with NITPIC, and SEDPHAT; figures were made using GUSSI[30].

[2] = molecular target: T2, CAMKK1 kinase domain (CAMKK1-KD, Gln124-Lys411) (Homo sapiens, UniProt Q8N5S9); experiment: Differential scanning fluorimetry (DSF) screen of a kinase inhibitor library against CAMKK1-KD; assay type: binding
T2 construct: The kinase domain (Gln124 to Lys411) was amplified using the primers; 6xHis (TEV-cleavable) (N, cleaved yes); made in house; host or cells: Escherichia coli BL21(DE3)-R3 co-expressing λ-phosphatase
Experimental: DSF measurements were made in a 384-well plate.
The compounds, previously solubilized in DMSO, were used at 10 µM final concentration and 0.1% DMSO. Plates were sealed using optically clear films and transferred to a QuantStudio 6 qPCR instrument (Applied Biosystems). […] Protein in 0.1% DMSO was used as a reference.

[3] = molecular target: T3, full length CAMKK1 (CAMKK1-FL) (Homo sapiens, UniProt Q8N5S9); experiment: IC50 determination by TR-FRET enzymatic assay with CAMKK1-FL in the presence of Ca2+/calmodulin; assay type: biochemical
T3 construct: made in house; host or cells: Spodoptera frugiperda Sf9 insect cells (baculovirus)
Experimental: Final assay concentrations of the components of the enzyme mix were 5 nM CAMKK1-FL, 1 µM calmodulin, 1 mM CaCl2, 5 mM MgCl2, 1 mM DTT. Final concentrations of ATP and peptide were 100 µM ATP, 1 µM peptide (STK substrate S1). The inhibitor solutions were prepared starting from 10 mM solutions in DMSO, diluted in enzymatic assay buffer to 200 or 100 µM, and then a 2x serial dilution in enzymatic assay buffer was performed, yielding the serially diluted inhibitors at 2.5x final concentration. […] For detection, 5 µL of streptavidin-XL665, and 5 µL of antibody-Eu-cryptate were added. […] Data was analysed in GraphPad PRISM version 7.

CAMKK1 = tested on: CAMKK1; design: concentration or dose not given beside the values; details: supplement; ref Anastassiadis et al. (2011); cited from earlier work
CAMKK2 = tested on: CAMKK2; design: concentration or dose not given beside the values; details: supplement; ref Anastassiadis et al. (2011); cited from earlier work
[4] = DSF, 1 μM CAMKK1-KD, compound 10 µM, mean and standard error from triplicate measurements, read-out: ΔTm (°C) CAMKK1
[5] = DSF, CAMKK1-KD, compound 10 µM, repeated in Table 3, read-out: ΔTm (°C)
[6] = DSF, 1 μM CAMKK1-KD, compound 10 µM, supplement, read-out: Mean ΔTm (°C)
[7] = DSF, 1 μM CAMKK1-KD, compound 10 µM, supplement

T1 sequence (Q8N5S9 124-411): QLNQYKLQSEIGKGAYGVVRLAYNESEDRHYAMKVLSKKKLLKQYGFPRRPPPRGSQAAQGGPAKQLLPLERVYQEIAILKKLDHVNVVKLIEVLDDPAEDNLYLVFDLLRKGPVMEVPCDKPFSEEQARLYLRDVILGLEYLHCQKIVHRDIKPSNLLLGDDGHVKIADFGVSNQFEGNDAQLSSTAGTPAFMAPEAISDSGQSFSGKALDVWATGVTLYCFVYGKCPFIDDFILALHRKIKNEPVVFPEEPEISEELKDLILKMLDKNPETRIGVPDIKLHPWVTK
T2 sequence (Q8N5S9 124-411): as above

ΔTm at 10 µM [2, 4] [°C]	ΔTm at 10 µM [2, 5] [°C]	Structure (SMILES)	Remaining activity (%) from Anastassiadis et al. (2011) CAMKK1 (CAMKK1) [%]	Remaining activity (%) from Anastassiadis et al. (2011) CAMKK2 (CAMKK2) [%]	also measured
7 ± 0.8	7 ± 0.8	CCS(=O)(=O)Nc1ccc2c(c1)/C(=C(/Nc1ccc(CN3CCCCC3)cc1)c1ccccc1)C(=O)N2 [Hesperadin]	–	–	Kd [1]: 26 nM; ΔH [1]: -14.1 kcal/mol; IC50 [3]: 107 nM
–	–	Cc1cc(Nc2cc(N3CCN(C)CC3)nc(Sc3ccc(NC(=O)C4CC4)cc3)n2)[nH]n1 [VX-680 (Tozasertib), Tozasertib]	86	–	ΔTm at 10 µM [2, 6]: 3.4 °C
13.6 ± 0.6	13.6 ± 0.6	CC1(COc2ccc3c(c2)ncn3-c2ccc3cccc(N4CCC(N)CC4)c3n2)COC1 [Crenolanib (CP-868596), Crenolanib]	–	–	Kd [1]: 4 nM; ΔH [1]: -10.9 kcal/mol; IC50 [3]: 153 nM
–	–	CCN(CC)CCNC(=O)c1c(C)[nH]c(/C=C2\C(=O)Nc3ccc(F)cc32)c1C [Sunitinib Malate]	52	65	–
8.2 ± 0.6	8.2 ± 0.6	COc1cc(N2CCC(N3CCN(C)CC3)CC2)ccc1Nc1ncc(Cl)c(Nc2ccccc2P(C)(C)=O)n1 [AP26113]	–	–	Kd [1]: 45 nM; ΔH [1]: -9.11 kcal/mol; IC50 [3]: 89 nM
16.1 ± 0.8	16.1 ± 0.8	O=C(O)c1ccc(-c2c[nH]c3ncc(-c4ccccc4)cc23)cc1C1CCCC1 [GSK650394]	–	–	ΔH [1]: -20.5 kcal/mol
14.4 ± 0.9	14.4 ± 0.9	COCCOc1ccc2c(c1)ncn2-c1ccc2cccc(N3CCC(N)CC3)c2n1 [CP-673451]	–	–	Kd [1]: 7 nM; IC50 [3]: 101 nM
–	–	CN1CCN(c2ccc3nc(-c4c(N)c5c(F)cccc5[nH]c4=O)[nH]c3c2)CC1 [Dovitinib (TKI-258) Dilactic Acid, Dovitinib]	49	86	ΔTm at 10 µM [2, 6]: 5.7 °C
–	–	Cc1ccc(Nc2nccc(N(C)c3ccc4c(C)n(C)nc4c3)n2)cc1S(N)(=O)=O [Pazopanib]	72	98	–
–	–	COc1cc2c(Nc3ccc(Br)cc3F)ncnc2cc1OCC1CCN(C)CC1 [Vandetanib (ZD6474), Vandetanib]	90	102	–
–	–	CNC(=O)c1cc(Oc2ccc(NC(=O)Nc3ccc(Cl)c(C(F)(F)F)c3)cc2)ccn1 [Sorafenib]	103	103	ΔTm at 10 µM ([2]; read-out: Mean ΔTm (°C)): 2.5 °C
–	–	Cc1nc(Nc2[nH]nc3c2CN(C(=O)N[C@H](CN(C)C)c2ccccc2)C3(C)C)c2sccc2n1 [PF-3758309]	–	–	ΔTm at 10 µM [2, 6]: 4.6 °C
–	–	CN1CCN(C2CCN(C(=O)Nc3cc(Oc4ccc(NC(=O)C5(C(=O)Nc6ccc(F)cc6)CC5)c(F)c4)ccn3)CC2)CC1 [Golvatinib (E7050), Golvatinib]	–	–	ΔTm at 10 µM [2, 6]: 5.5 °C
–	–	C=CC(=O)Nc1cccc(Nc2nc(Nc3ccc(NC4CN(CCF)C4)cc3OC)ncc2C(F)(F)F)c1 [CNX-2006]	–	–	Mean ΔTm (°C) [2, 7]: 4.4 °C
–	–	O=C1NCCc2[nH]c(-c3ccncc3)cc21 [PHA-767491]	–	–	Mean ΔTm (°C) [2, 7]: 3.0 °C
